According to patent publication US5854204A, “Aβ peptides that modulate β-amyloid aggregation” (priority 1996, dated 1998):
Like-named read-outs stand apart in the source and are kept apart here. Ends that are not written are not given here. Peptide text beside a SMILES is read from it. * marks the point of attachment. Cholyl = C[C@H](CCC(=O)*)[C@H]1CC[C@H]2[C@@H]3[C@H](O)C[C@@H]4C[C@H](O)CC[C@]4(C)[C@H]3C[C@H](O)[C@]12C

Columns and labels:
Aβ1-40 [1] = molecular target: T1, Aβ1-40 (Homo sapiens, UniProt P05067); assay: biochemical; details: read-out: % Inucl'n (percent reduction in maximum turbidity);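 also: Aβ nucleation assay tracking fiber polymerization from monomer by turbidity (light scattering), shaken continuously in 96-well plates, read every 15 min over 5 h, compared with compound-free control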
T1 sequence (P05067 672-711): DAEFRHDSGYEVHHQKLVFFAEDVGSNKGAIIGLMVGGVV

Aβ1-40 [2] = molecular target: T1, Aβ1-40
[3] = Table VI, unmodified peptides, 100 mole %

CC(C)C[C@H](NC(=O)[C@H](CCCCN)NC(=O)[C@H](CCC(N)=O)NC(=O)[C@H](Cc1c[nH]cn1)NC(=O)CC[C@@H](C)[C@H]1CC[C@H]2[C@@H]3[C@H](O)C[C@@H]4C[C@H](O)CC[C@]4(C)[C@H]3C[C@H](O)[C@]12C)C(=O)N[C@H](C(=O)N[C@@H](Cc1ccccc1)C(=O)N[C@@H](Cc1ccccc1)C(N)=O)C(C)C [PPI-315] (Cholyl-HQKLVFF-NH2)
inhibition at 33 % (Aβ1-40 [1]): 5%

CC(C)C[C@H](NC(=O)[C@H](CCCCN)NC(=O)[C@H](CCC(N)=O)NC(=O)[C@H](Cc1c[nH]cn1)NC(=O)[C@H](Cc1c[nH]cn1)NC(=O)[C@@H](NC(=O)[C@H](CCC(=O)O)NC(=O)[C@H](Cc1ccc(O)cc1)NC(=O)CNC(=O)[C@H](CO)NC(=O)[C@H](CC(=O)O)NC(=O)[C@H](Cc1c[nH]cn1)NC(=O)CC[C@@H](C)[C@H]1CC[C@H]2[C@@H]3[C@H](O)C[C@@H]4C[C@H](O)CC[C@]4(C)[C@H]3C[C@H](O)[C@]12C)C(C)C)C(=O)N[C@H](C(=O)N[C@@H](Cc1ccccc1)C(N)=O)C(C)C [PPI-321] (Cholyl-HDSGYEVHHQKLVF-NH2)
inhibitory activity on Aβ aggregation (Aβ1-40 [2]): loss of inhibitory activity | Fold Increase in Lag Time (Aβ1-40 [2]; Table III, 33 mole %): 1.4 fold | Fold Increase in Lag Time (Aβ1-40 [2]; Table IV, 100 mole %): 1.2 fold

CC(C)C[C@H](NC(=O)OC(C)(C)C)C(=O)N[C@H](C(=O)N[C@@H](Cc1ccccc1)C(=O)N[C@@H](Cc1ccccc1)C(=O)N[C@@H](C)C(=O)O)C(C)C [PPI-435]
% Inucl'n (percent reduction in maximum turbidity) (Aβ1-40 [2]): -5% | ΔLag (ratio of lag time with test compound to lag time of control) (Aβ1-40 [2]; Table V, 100 mole % inhibitor relative to Aβ1-40): 3.0

KLVFFAEDVGSNKGA [PPI-228, Aβ16-30]
% Inhibition of Plateau (Aβ1-40 [2]): 100% | Fold Increase in Lag Time (Aβ1-40 [2]; [3]): > 4.5 fold

C[C@H](CCC(=O)N[C@@H](Cc1c[nH]cn1)C(=O)N[C@@H](CC(=O)O)C(=O)N[C@@H](CO)C(=O)NCC(=O)N[C@@H](Cc1ccc(O)cc1)C(N)=O)[C@H]1CC[C@H]2[C@@H]3[C@H](O)C[C@@H]4C[C@H](O)CC[C@]4(C)[C@H]3C[C@H](O)[C@]12C [PPI-339] (Cholyl-HDSGY-NH2)
% Inhibition of Plateau (Aβ1-40 [2]): 13%

CC[C@H](C)[C@H](NC(=O)[C@H](C)NC(=O)CNC(=O)[C@H](CCCCN)NC(=O)[C@H](CC(N)=O)NC(=O)[C@H](CO)NC(=O)[C@H](Cc1ccccc1)NC(=O)[C@H](Cc1ccccc1)NC(=O)[C@@H](NC(=O)[C@H](CC(C)C)NC(=O)[C@H](CCCCN)NC(=O)[C@H](CCC(N)=O)NC(=O)[C@H](Cc1c[nH]cn1)NC(=O)[C@H](Cc1c[nH]cn1)NC(=O)[C@@H](NC(=O)[C@H](CCC(=O)O)NC(=O)[C@H](Cc1ccc(O)cc1)NC(=O)CNC(=O)[C@H](CO)NC(=O)[C@H](CC(=O)O)NC(=O)[C@H](Cc1c[nH]cn1)NC(=O)[C@H](CCCNC(=N)N)NC(=O)[C@H](Cc1ccccc1)NC(=O)[C@H](CCC(=O)O)NC(=O)[C@H](C)NC(=O)[C@@H](N)CC(=O)O)C(C)C)C(C)C)C(=O)N[C@H](C(=O)NCC(=O)N[C@@H](CC(C)C)C(=O)N[C@@H](CCSC)C(=O)N[C@H](C(=O)NCC(=O)NCC(=O)N[C@H](C(=O)N[C@H](C(=O)O)C(C)C)C(C)C)C(C)C)[C@@H](C)CC [PPI-249, Aβ1-20, 26-40 (Δ21-25)]
% Inhibition of Plateau (Aβ1-40 [2]): ~ 0% | Fold Increase in Lag Time (Aβ1-40 [2]; [3]): 2.37 fold

CC[C@H](C)[C@H](NC(=O)[C@H](C)NC(=O)CNC(=O)[C@H](CCCCN)NC(=O)[C@H](CC(N)=O)NC(=O)[C@H](CO)NC(=O)CNC(=O)[C@@H](NC(=O)[C@H](CC(=O)O)NC(=O)[C@H](CCC(=O)O)NC(=O)[C@H](C)NC(=O)[C@H](CCC(N)=O)NC(=O)[C@H](Cc1c[nH]cn1)NC(=O)[C@H](Cc1c[nH]cn1)NC(=O)[C@@H](NC(=O)[C@H](CCC(=O)O)NC(=O)[C@H](Cc1ccc(O)cc1)NC(=O)CNC(=O)[C@H](CO)NC(=O)[C@H](CC(=O)O)NC(=O)[C@H](Cc1c[nH]cn1)NC(=O)[C@H](CCCNC(=N)N)NC(=O)[C@H](Cc1ccccc1)NC(=O)[C@H](CCC(=O)O)NC(=O)[C@H](C)NC(=O)[C@@H](N)CC(=O)O)C(C)C)C(C)C)C(=O)N[C@H](C(=O)NCC(=O)N[C@@H](CC(C)C)C(=O)N[C@@H](CCSC)C(=O)N[C@H](C(=O)NCC(=O)NCC(=O)N[C@H](C(=O)N[C@H](C(=O)O)C(C)C)C(C)C)C(C)C)[C@@H](C)CC [PPI-250, Aβ1-15, 21-40 (Δ16-20)]
% Inhibition of Plateau (Aβ1-40 [2]): ~ 0% | Fold Increase in Lag Time (Aβ1-40 [2]; [3]): 1.55 fold

SNKGAIIGLMVGGVV [PPI-230, Aβ26-40]
% Inhibition of Plateau (Aβ1-40 [2]): ~ 0% | Fold Increase in Lag Time (Aβ1-40 [2]; [3]): 0.8 fold

CC(C)C[C@H](NC(=O)[C@H](CCCCN)NC(=O)[C@H](CCC(N)=O)NC(=O)[C@H](Cc1c[nH]cn1)NC(=O)[C@H](Cc1c[nH]cn1)NC(=O)[C@@H](NC(=O)CC[C@@H](C)[C@H]1CC[C@H]2[C@@H]3[C@H](O)C[C@@H]4C[C@H](O)CC[C@]4(C)[C@H]3C[C@H](O)[C@]12C)C(C)C)C(=O)N[C@H](C(=O)N[C@@H](Cc1ccccc1)C(=O)N[C@@H](Cc1ccccc1)C(=O)O)C(C)C [PPI-346] (Cholyl-VHHQKLVFF-OH)
% Inhibition of Plateau (Aβ1-40 [2]): ~ 0%

AEDVGSNKGAIIGLM [PPI-229, Aβ21-35]
% Inhibition of Plateau (Aβ1-40 [2]): ~ 0% | Fold Increase in Lag Time (Aβ1-40 [2]; [3]): ~ 1 fold

CC(C)C[C@H](NC(=O)CC[C@@H](C)[C@H]1CC[C@H]2[C@@H]3CC[C@@H]4C[C@H](O)CC[C@]4(C)[C@H]3C[C@H](O)[C@]12C)C(=O)N[C@H](C(=O)N[C@@H](Cc1ccccc1)C(=O)N[C@@H](Cc1ccccc1)C(=O)N[C@@H](C)C(=O)O)C(C)C [PPI-424]
% Inucl'n (percent reduction in maximum turbidity) (Aβ1-40 [2]): -114%

CC[C@H](C)[C@H](NC(=O)[C@H](C)NC(=O)CNC(=O)[C@H](CCCCN)NC(=O)[C@H](CC(N)=O)NC(=O)[C@H](CO)NC(=O)CNC(=O)[C@@H](NC(=O)[C@H](CC(=O)O)NC(=O)[C@H](CCC(=O)O)NC(=O)[C@H](C)NC(=O)[C@H](Cc1ccccc1)NC(=O)[C@H](Cc1ccccc1)NC(=O)[C@@H](NC(=O)[C@H](CC(C)C)NC(=O)[C@H](CCCCN)NC(=O)[C@H](Cc1ccc(O)cc1)NC(=O)CNC(=O)[C@H](CO)NC(=O)[C@H](CC(=O)O)NC(=O)[C@H](Cc1c[nH]cn1)NC(=O)[C@H](CCCNC(=N)N)NC(=O)[C@H](Cc1ccccc1)NC(=O)[C@H](CCC(=O)O)NC(=O)[C@H](C)NC(=O)[C@@H](N)CC(=O)O)C(C)C)C(C)C)C(=O)N[C@H](C(=O)NCC(=O)N[C@@H](CC(C)C)C(=O)N[C@@H](CCSC)C(=O)N[C@H](C(=O)NCC(=O)NCC(=O)N[C@H](C(=O)N[C@H](C(=O)O)C(C)C)C(C)C)C(C)C)[C@@H](C)CC [PPI-251, Aβ1-10, 16-40 (Δ11-15)]
% Inhibition of Plateau (Aβ1-40 [2]): ~ 0% | Fold Increase in Lag Time (Aβ1-40 [2]; [3]): ~ 1.2 fold

CC(C)[C@H](NC(=O)[C@H](CCC(=O)O)NC(=O)[C@H](Cc1ccc(O)cc1)NC(=O)CNC(=O)[C@H](CO)NC(=O)[C@H](CC(=O)O)NC(=O)[C@H](Cc1c[nH]cn1)NC(=O)CC[C@@H](C)[C@H]1CC[C@H]2[C@@H]3[C@H](O)C[C@@H]4C[C@H](O)CC[C@]4(C)[C@H]3C[C@H](O)[C@]12C)C(=O)N[C@@H](Cc1c[nH]cn1)C(=O)N[C@@H](Cc1c[nH]cn1)C(N)=O [PPI-331] (Cholyl-HDSGYEVHH-NH2)
% Inhibition of Plateau (Aβ1-40 [2]): 29%

HDSGYEVHHQKLVFF [PPI-226, Aβ6-20]
% Inhibition of Plateau (Aβ1-40 [2]): 76% | Fold Increase in Lag Time (Aβ1-40 [2]; [3]): 1.66 fold

CC(C)C[C@H](NC(=O)[C@H](CCCCN)NC(=O)[C@H](CCC(N)=O)NC(=O)CC[C@@H](C)[C@H]1CC[C@H]2[C@@H]3[C@H](O)C[C@@H]4C[C@H](O)CC[C@]4(C)[C@H]3C[C@H](O)[C@]12C)C(=O)N[C@H](C(=O)N[C@@H](Cc1ccccc1)C(=O)O)C(C)C [PPI-366] (Cholyl-QKLVF-OH)
% Inhibition of Plateau (Aβ1-40 [2]): ~ 0%
